Data set [1] concerns pig models with induced atrial fibrillation. As to the kind of experiment: Intratracheal nebivolol or metoprolol, alone or combined with flecainide, in pig models with induced atrial fibrillation (Example 6). The format is in vivo, male Yorkshire pigs. On the procedure: The investigations were conducted in male Yorkshire pigs. The animals were preanesthetized with telazol (4.7 mg/kg, intramuscular) and subsequently were further anesthetized using alpha-chloralose (80-mg/kg IV bolus followed by 24-mg/kg/h continuous IV infusion). The pigs were intubated and ventilated at a constant rate of 12 breaths/min and tidal volume of 400 ml per stroke.
(§1) The catheters were positioned under fluoroscopic control. Electrograms were recorded from a decapolar electrode catheter positioned in the LV. Mean arterial pressure (MAP) was continuously recorded from a femoral arterial sheath. LV blood pressure was continuously monitored from a pigtail catheter. A catheter was introduced into the pericardial space via the right atrial appendage for delivery of intrapericardial acetylcholine. Atrial pacing at 160 beats/min was accomplished by delivering electrical stimuli to the right atrial catheter electrodes. Electrograms were monitored using a Prucka CardioLab workstation (GE Medical Systems, Milwaukee Wis.) from atrial and ventricular sites. For intratracheal instillation of metoprolol solution or sterile water, a 5 Fr angiography catheter was introduced into the trachea via the endotracheal tube, extending ˜1 cm past the tube, and its tip was positioned under fluoroscopy at the tracheal carina level.
Metoprolol obtained in powder form was used to prepare a stock solution of 15.3 mg/ml by dissolving the drug in 100% dimethyl sulfoxide (DMSO). A volume was withdrawn from the stock solution to achieve a 2 mg/kg IT dose and was supplemented with sterile water to attain a 2 ml total volume for bolus injection.
For Nebivolol (racemic mixtures of d- and l-nebivolol), a stock solution of 25 mg/ml was prepared by dissolving the drug in 100% DMSO. The dose was 0.3 mg/kg for intratracheal instillation. The corresponding volume was withdrawn from the stock solution based on body weight of the pig, and the allocated volume was completed with sterile water to attain 2 ml total volume. The administration was made with a 5 cc syringe with 2 ml of 0.3 mg/kg nebivolol solution and 3 ml of air.
AF was induced with 1 mL of a 102.5 mM solution of acetylcholine bolus delivered through the pericardial catheter, followed by saline flush (2 mL). Burst pacing at a cycle length of 178 ms was performed at 1 minute after intrapericardial administration of ACh. After AF initiation, lavage was carried out with 20 mL of saline.
For the intratracheal instillation of metoprolol (0.2 mg/kg or 0.4 mg/kg), nebivolol (0.3 mg/kg), flecainide (0.75 mg/kg), or cocktail of metoprolol and flecainide (0.2 mg/kg and 0.75 mg/kg, respectively), the drug agent was administered in 2 mL total volume in a single “push” of 2-3 seconds, followed by 3 ml of air in a 5 ml syringe, via the […] Sterile water (2 ml) was used as a placebo for intratracheal instillation in the baseline AF. A washout period of 30 to 60 min was allowed between inductions of each occurrence of AF.
AF duration was compared starting at 2 min after AF was induced, when the IT instillation was administered. The average ventricular rate for each AF was obtained by the mean of six measurements of ventricular rate performed each 30 seconds between the IT delivery (sterile water or metoprolol instillation) and the AF conversion to sinus rhythm.
For the study of nebivolol, in 2 of the 4 animals that were tested, at 60 min following nebivolol administration, flecainide was administered to test the effect of combined use of nebivolol and flecainide. For the study of metoprolol, given that metoprolol can have a short half-life in vivo, the effect of combined use of metoprolol and flecainide was tested by giving a second IT dose of metoprolol-flecainide cocktail 60 min following the first IT dose of metoprolol in the animals.

For data set [2], the system named is pig models of induced atrial fibrillation. Briefly: Left ventricular contractility (LV dP/dt) and mean arterial pressure before and after AF, atrial pacing 160 beats/min (Example 5). As to conditions: IT metoprolol 0.2 mg/kg. The format is in vivo, male Yorkshire pigs. On the procedure:
as §1, with “level. AF duration was compared starting at 2 min after AF was induced, when the IT instillation was administered. The average ventricular rate for each AF was obtained by the mean of six measurements of ventricular rate performed each 30 seconds between the IT delivery (sterile water or metoprolol instillation) and the AF conversion to sinus rhythm. Contractility (LV dP/dt) and MAP were recorded during atrial pacing at 160 beats/min before AF was induced and after it was terminated. Statistical analyses were performed using the SAS system (version 9.4) to apply ANOVA with post-hoc Dunnett's test for each time point. Data are reported as means±SEM. Statistical significance was assumed at p<0.05.” for “level.”

The next data set has as its system atrial arrhythmia. As to conditions: intravenous, 5 to 15 mg bolus doses; cited from earlier work.
In data set [3] the test system is pig models of induced atrial fibrillation. Briefly: Intratracheal metoprolol in pig model of acetylcholine/burst-pacing induced atrial fibrillation (Example 5): AF duration, PR interval, dominant frequency, ventricular rate. The class given is in vivo, male Yorkshire pigs. As to conditions: for reduction of ventricular rate during AF: IT metoprolol 0.2 mg/kg vs baseline AF with sterile water. The protocol:
Experiments described herein (e.g., Examples 5-7) complied with the National Institutes of Health Guide for the Care and Use of Laboratory Animals as well as the Declaration of Helsinki. The protocol was approved by the institutional animal use committee of Beth Israel Deaconess Medical Center (Boston Mass.). The investigations were conducted in male Yorkshire pigs weighing 46±1.8 kg. The animals were preanesthetized with telazol (4.7 mg/kg, intramuscular) and subsequently were further anesthetized using alpha-chloralose (80-mg/kg IV bolus followed by 24-mg/kg/h continuous IV infusion). The pigs were intubated and ventilated at a constant rate of 12 breaths/min and tidal volume of 400 ml per stroke. The catheters were positioned under fluoroscopic control. Electrograms were recorded from a decapolar electrode catheter positioned in the LV. Mean arterial pressure (MAP) was continuously recorded from a femoral arterial sheath. LV blood pressure was continuously monitored from a pigtail catheter. A catheter was introduced into the pericardial space via the right atrial appendage for delivery of intrapericardial acetylcholine. Atrial pacing at 160 beats/min was accomplished by delivering electrical stimuli to the right atrial catheter electrodes. Electrograms were monitored using a Prucka CardioLab workstation (GE Medical Systems, Milwaukee Wis.) from atrial and ventricular sites. For intratracheal instillation of metoprolol solution or sterile water, a 5 Fr angiography catheter was introduced into the trachea via the endotracheal tube, extending ˜1 cm past the tube, and its tip was positioned under fluoroscopy at the tracheal carina level. Metoprolol solutions of 0.2 mg/kg for intratracheal instillation were prepared by dilution of stock solution of 15.3 mg/ml in saline, originally obtained from metoprolol in powder form by dilution in dimethyl sulfoxide (DMSO). Plasma samples were analyzed using a high-performance liquid chromatography tandem mass spectrometric assay at Climax Laboratories, Inc. (San Jose Calif.). AF was induced with 1 mL of a 102.5 mM solution of acetylcholine bolus delivered through the pericardial catheter, followed by saline flush (2 mL). Burst pacing at a cycle length of 178 ms was performed at 1 minute after intrapericardial administration of ACh. After AF initiation, lavage was carried out with 20 ml of saline. For the intratracheal instillation of metoprolol (2 ml of 0.2 mg/kg concentration followed by 3 ml of air in a 5 ml syringe), the agent was administered in a single “push” via the modified angiography catheter positioned in the endotracheal tube at the beginning of the inspiration phase after two minutes of consolidated atrial fibrillation. Sterile water (2 ml) was used as a placebo for intratracheal instillation in the baseline AF. A washout period of 30 to 60 min was allowed between inductions of each occurrence of AF. AF duration was compared starting at 2 min after AF was induced, when the IT instillation was administered. The average ventricular rate for each AF was obtained by the mean of six measurements of ventricular rate performed each 30 seconds between the IT delivery (sterile water or metoprolol instillation) and the AF conversion to sinus rhythm. Contractility (LV dP/dt) and MAP were recorded during atrial pacing at 160 beats/min before AF was induced and after it was terminated. Statistical analyses were performed using the SAS system (version 9.4) to apply ANOVA with post-hoc Dunnett's test for each time point. Data are reported as means±SEM. Statistical significance was assumed at p<0.05.

The subject of the next data set is animal models of AF. Briefly: Intratracheal co-delivery of metoprolol and flecainide in pig AF models (Example 7). The format is in vivo, male Yorkshire pigs. On the procedure:
Experimental animal models of AF (male Yorkshire pigs), and study reagents (metoprolol and flecainide) were prepared according to similar procedures described in Examples 5 and 6. In this example, the animals received IT administration of either metoprolol alone (0.2 mg/kg or 0.4 mg/kg), a cocktail of metoprolol and flecainide (0.2 mg/kg and 0.75 mg/kg, respectively, or 0.4 mg/kg and 0.75 mg/kg, respectively), or flecainide alone (0.75 mg/kg).

The conditions of data set [4]: cited from earlier work.
The test system of data set [5] is new onset atrial fibrillation or flutter. Particulars: esmolol-treated patients with new onset atrial fibrillation or flutter; cited from earlier work.
The next data set has as its system atrial fibrillation. Particulars: given in oral pills; several studies (Ferreira 1997 review); cited from earlier work.
The mark [6] stands for this setting: AF induced 30 min after IT nebivolol 0.3 mg/kg.

SMILES strings stand for the structures. Where a name gives a salt, the structure may show the parent alone. Read-outs that look alike come from different tables or passages of the source.

Take `COCCc1ccc(OCC(O)CNC(C)C)cc1` (racemic) [metoprolol, (±) 1-(isopropylamino)-3-[p-(2-methoxyethyl)phenoxy]-2-propanol]: the “reduction of ventricular rate during AF” value is “moderate” in data set [1] (AF 30 min after IT metoprolol 0.2 mg/kg), 12±2.6% in data set [3] and 32 beats/min in data set [3] (p=0.007). In addition, the “shortening of the AF duration” value is “about 36%” in data set [1] (AF induced 30 min after IT metoprolol 0.2 mg/kg); “about 28%” in data set [1] (AF induced right after IT metoprolol 0.2 mg/kg alone, vs placebo baseline AF); 20.4±4.9% in data set [3] (IT metoprolol 0.2 mg/kg vs placebo baseline AF (sterile water IT), p=0.018). The “reduction in ventricular rate during AF” value in data set [1] (AF induced right after IT metoprolol 0.2 mg/kg, vs baseline AF) is “about 13%”. For the same molecule, the “MAP after AF” value in data set [2] (before AF 125±4.3, p=0.26, pacing 160 beats/min) is recorded as 118±4.0. In addition, the “contractility (LV dP/dt) after AF conversion” value in data set [2] (before AF 2337±252.7, pacing 160 beats/min) was 1951±277.9. Also, the “change in MAP” value in data set [2] (before vs after AF) is listed as “no significant changes”. For the same molecule, the “reduction in contractility (LV dP/dt) after conversion” value in data set [2] (pacing 160 beats/min, p=0.006, not different from AF baseline reduction (p=0.85)) came to 17.5±4.0%. Also, the “conversion rate of atrial arrhythmia” value in the data set with atrial arrhythmia was 13%. The “patients with rate reduced at least 25% or to less than 100 bpm” value with atrial arrhythmia is 68%. Also, in data set [3] (IT metoprolol 0.2 mg/kg), the “occurrence of atrial flutter during conversion” value is reported as “In none of the animals did atrial flutter occur”. In data set [3] (IT metoprolol 0.2 mg/kg vs baseline AF, p=0.04), the “reduction of AF dominant frequency” value is given as 31%. Also, the AF dominant frequency in data set [3] (IT metoprolol 0.2 mg/kg, baseline AF 8.7±0.94) stood at 6±1.1 Hz. In addition, in data set [3] (IT metoprolol 0.2 mg/kg, baseline AF 272±13.7), the “ventricular rate during AF” value came out at 240±12.6 beats/min. This molecule gave an AF duration in data set [3] (IT metoprolol 0.2 mg/kg, placebo baseline 10.3±2.0, mean±SEM) of 8.0 ± 1.5 min. This molecule gave a PR interval in data set [3] (metoprolol 0.2 mg/kg bolus IT, from 174±11.2, p=0.07) of 182 ± 11.4 ms. In data set [3] (metoprolol 0.2 mg/kg bolus IT, trend, p=0.07), the “increase in PR interval” value worked out at 4%. In addition, the “reduction in the AF duration” value in the data set with animal models of AF (IT 0.2 mg/kg metoprolol alone) was “about 20%”; in the data set on animal models of AF (IT 0.4 mg/kg metoprolol alone), “about 27%”. The “reduction in the average ventricular rate during the AF conversion” value in the data set with animal models of AF (IT 0.2 mg/kg metoprolol alone) and in the data set on animal models of AF (IT 0.4 mg/kg metoprolol alone) was “about 10%” in each case.

`OC(CNCC(O)C1CCc2cc(F)ccc2O1)C1CCc2cc(F)ccc2O1` (racemic) [nebivolol, 2,2′-Azanediylbis(1-(6-fluorochroman-2-yl)ethanol)]: the entries for the “reduction in ventricular rate during AF” value in data set [1] (setting [6]) and in data set [1] (AF induced right after IT nebivolol 0.3 mg/kg) were “about 22%” and “about 10%”, respectively. The “shortening of the AF duration” value in data set [1] (setting [6]) is “about 33%”; in data set [1] (IT nebivolol 0.3 mg/kg, administered right before the AF induction, vs placebo baseline AF) it was “about 24%”. Besides, the water solubility result in data set [4] (water) is “low water solubility”.

For `OC(CNCC(O)C1CCc2cc(F)ccc2O1)C1CCc2cc(F)ccc2O1` (centres unmarked) [Nebivolol hydrochloride], the solubility result in data set [4] (in ethanol, propylene glycol, and polyethylene glycol) is recorded as “sparingly soluble”; in data set [4] (in hexane, dichloromethane, and methylbenzene), “very slightly soluble”; in data set [4] (in methanol, dimethylsulfoxide, and N,N-dimethylformamide), “soluble”.

Turning to `COC(=O)CCc1ccc(OCC(O)CNC(C)C)cc1` (centres unmarked) [esmolol], in data set [5], the “patients converted to sinus rhythm” value is recorded as “about 50%”.

For `O=C(NCC1CCCCN1)c1cc(OCC(F)(F)F)ccc1OCC(F)(F)F` (centres unmarked) [flecainide], the “reduction in the average ventricular rate during AF” value in the data set with animal models of AF (IT 0.75 mg/kg flecainide alone) is reported as “about 10%”.

As to `CC(C)NCC(O)c1ccc(NS(C)(=O)=O)cc1` (centres unmarked) [soltalol], in the data set with atrial fibrillation, the “efficacy for acute conversion of atrial fibrillation to normal sinus rhythm” value is listed as 8-49%.

(Values after US10744087B2, “Method to slow ventricular rate” (InCarda Therapeutics, Inc., priority 2018, dated 2020).)
